# pIC50: −log10 of the molar value. Counter-ions that a name gives are not always drawn.
# Assays:
# TLR7 = target: T1, TLR7 (Homo sapiens, UniProt Q9NYK1); test: HEK/293 TLR7 Cell Assay; assay type: cell-based; conditions: TLR7/NFKb HEK cells, R848 agonist 10 uM final concentration, Steady-Glo readout; read-out: TLR7 potency
# T1 construct: expressed in transfected cells; host or cells: HEK/293 cells carrying TLR7 and an NF-kB luciferase reporter
# T1 sequence (Q9NYK1 27-1049): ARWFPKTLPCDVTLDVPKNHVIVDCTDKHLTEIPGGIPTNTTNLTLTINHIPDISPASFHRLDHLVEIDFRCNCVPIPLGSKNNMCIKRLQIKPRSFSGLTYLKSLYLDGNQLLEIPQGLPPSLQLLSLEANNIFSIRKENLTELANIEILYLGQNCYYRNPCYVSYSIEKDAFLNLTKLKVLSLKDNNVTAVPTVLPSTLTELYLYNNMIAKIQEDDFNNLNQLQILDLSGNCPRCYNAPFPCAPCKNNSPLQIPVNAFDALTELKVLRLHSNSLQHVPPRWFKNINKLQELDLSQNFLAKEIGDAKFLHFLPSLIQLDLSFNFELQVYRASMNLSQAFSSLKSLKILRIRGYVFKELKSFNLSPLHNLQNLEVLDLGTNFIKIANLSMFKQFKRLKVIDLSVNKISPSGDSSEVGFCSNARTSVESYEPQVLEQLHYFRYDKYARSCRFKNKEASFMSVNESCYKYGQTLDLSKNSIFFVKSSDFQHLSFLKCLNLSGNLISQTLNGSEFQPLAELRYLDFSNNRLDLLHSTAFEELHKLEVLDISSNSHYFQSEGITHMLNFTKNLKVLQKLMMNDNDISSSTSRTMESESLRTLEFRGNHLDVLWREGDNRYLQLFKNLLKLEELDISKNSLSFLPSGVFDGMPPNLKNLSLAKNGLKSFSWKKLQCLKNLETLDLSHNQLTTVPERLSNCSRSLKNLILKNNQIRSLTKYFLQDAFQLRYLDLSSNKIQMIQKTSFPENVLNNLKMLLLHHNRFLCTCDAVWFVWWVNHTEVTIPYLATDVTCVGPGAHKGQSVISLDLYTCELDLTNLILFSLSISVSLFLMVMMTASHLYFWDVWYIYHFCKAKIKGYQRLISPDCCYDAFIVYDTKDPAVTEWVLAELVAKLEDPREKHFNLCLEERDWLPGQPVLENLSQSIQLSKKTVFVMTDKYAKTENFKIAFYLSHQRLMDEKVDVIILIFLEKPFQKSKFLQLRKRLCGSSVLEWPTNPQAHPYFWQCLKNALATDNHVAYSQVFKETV
# Outline: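 TLR7/NF-κB reporter HEK293 cells, 5000/well, cultured 24 h, then preincubated 30 min with compound before R848 agonist (10 uM final). After 5 h stimulation, Steady-Glo luciferase luminescence read.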
# TLR8 = target: T2, TLR8 (Homo sapiens, UniProt Q9NR97); test: HEK/293 TLR8 Cell Assay; assay type: cell-based; conditions: HEK cells, R848 agonist 30 uM final concentration, Steady-Glo readout; read-out: TLR8 potency
# T2 construct: expressed in transfected cells; host or cells: HEK/293 reporter cells (NF-kB luciferase)
# T2 sequence (Q9NR97 27-1041): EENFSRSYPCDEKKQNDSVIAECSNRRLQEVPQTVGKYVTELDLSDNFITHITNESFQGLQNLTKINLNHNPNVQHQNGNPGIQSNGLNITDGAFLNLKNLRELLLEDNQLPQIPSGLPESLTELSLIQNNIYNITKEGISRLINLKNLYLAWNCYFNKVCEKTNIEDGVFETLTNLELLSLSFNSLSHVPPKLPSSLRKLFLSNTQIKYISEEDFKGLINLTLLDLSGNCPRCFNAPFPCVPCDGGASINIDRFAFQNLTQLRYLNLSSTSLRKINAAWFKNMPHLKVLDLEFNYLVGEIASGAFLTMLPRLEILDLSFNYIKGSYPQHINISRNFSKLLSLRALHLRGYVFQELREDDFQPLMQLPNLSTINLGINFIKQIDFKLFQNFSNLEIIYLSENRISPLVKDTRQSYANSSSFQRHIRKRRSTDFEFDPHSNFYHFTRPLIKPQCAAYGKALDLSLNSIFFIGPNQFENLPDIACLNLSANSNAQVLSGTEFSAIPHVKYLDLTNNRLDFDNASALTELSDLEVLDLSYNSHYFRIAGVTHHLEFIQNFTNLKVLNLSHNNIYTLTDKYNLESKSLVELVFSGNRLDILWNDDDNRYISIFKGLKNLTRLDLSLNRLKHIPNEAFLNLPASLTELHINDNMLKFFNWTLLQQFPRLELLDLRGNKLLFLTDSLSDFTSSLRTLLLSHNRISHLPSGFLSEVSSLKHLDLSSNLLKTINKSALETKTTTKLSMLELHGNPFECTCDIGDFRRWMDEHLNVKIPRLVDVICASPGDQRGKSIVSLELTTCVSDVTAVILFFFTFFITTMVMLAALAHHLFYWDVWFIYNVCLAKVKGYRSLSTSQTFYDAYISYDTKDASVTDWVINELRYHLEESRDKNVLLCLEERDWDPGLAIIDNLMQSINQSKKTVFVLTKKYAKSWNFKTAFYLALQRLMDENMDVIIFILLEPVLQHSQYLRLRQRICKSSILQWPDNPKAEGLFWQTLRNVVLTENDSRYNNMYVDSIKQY
pIC50 (TLR7),pIC50 (TLR8),SMILES
> 7.12,> 7.12,"C[C@@H]1CN(c2cnc(C#N)c3ncccc23)C[C@H](CN2CCNCC2)O1 [Example 366, 5-((2R,6S)-2-Methyl-6-piperazin-1-ylmethyl-morpholin-4-yl)-[1,7]naphthyridine-8-carbonitrile]"
6.82 to 7.12,> 7.12,"Cc1ccc(N2C[C@@H](C)C[C@@H](NC(=O)CN3CCN(C)CC3)C2)c2cccnc12 [Example 86, N-[(3R,5S)-5-methyl-1-(8-methylquinolin-5-yl)piperidin-3-yl]-2-(4-methylpiperazin-1-yl)acetamide]"
< 6.82,< 6.82,"N#Cc1ccc(N2C[C@H](NC(=O)CO)C[C@H](C(F)(F)F)C2)c2cccnc12 [Example 62, N-[(3R,5S)-1-(8-Cyano-quinolin-5-yl)-5-trifluoromethyl-piperidin-3-yl]-2-hydroxy-acetamide]"
> 7.12,> 7.12,"C[C@H]1C[C@@H](NC(=O)C2(F)CCNC2)CN(c2ccc(C(F)(F)F)c3ncccc23)C1 (stereo partly drawn) [Example 205, 3-fluoro-N-[(3R,5S)-5-methyl-1-[8-(trifluoromethyl)quinolin-5-yl]piperidin-3-yl]pyrrolidine-3-carboxamide]"
> 7.12,> 7.12,"N#Cc1ccc(N2C[C@H](NC(=O)C(O)CO)C[C@H](C(F)(F)F)C2)c2cccnc12 (stereo partly drawn) [Example 60, N-[(3R,5S)-1-(8-Cyano-quinolin-5-yl)-5-trifluoromethyl-piperidin-3-yl]-2,3-dihydroxy-propionamide]"
> 7.12,6.82 to 7.12,"C[C@H]1C[C@@H](NCCC(=O)N2CC(O)C2)CN(c2ccc(C(F)(F)F)c3ncccc23)C1 [Example 53, 1-(3-Hydroxy-azetidin-1-yl)-3-[(3R,5S)-5-methyl-1-(8-trifluoromethyl-quinolin-5-yl)-piperidin-3-ylamino]-propan-1-one]"
> 7.12,> 7.12,"C[C@@H]1CN(c2cnc(C#N)c3ncccc23)C[C@H](CNC(=O)[C@@]2(F)CCCNC2)O1 (single isomer, unassigned) [Example 338]"
< 6.82,> 7.12,"C[C@H]1C[C@@H](NC(=O)N[C@@H]2CCCNC2)CN(c2ccc(C(F)(F)F)c3ncccc23)C1 [Example 146, 3-[(3R,5S)-5-methyl-1-[8-(trifluoromethyl)quinolin-5-yl]piperidin-3-yl]-1-[(3R)-piperidin-3-yl]urea]"
6.82 to 7.12,> 7.12,"C[C@@H]1CN(c2cnc(C#N)c3ncccc23)C[C@H](CNC(=O)C2(F)CCNC2)O1 (stereo partly drawn) [Example 332, N-{[(2S,6R)-4-(8-cyano-1,7-naphthyridin-5-yl)-6-methylmorpholin-2-yl]methyl}-3-fluoropyrrolidine-3-carboxamide]"

# The remaining lines, values behind:
SMILES,pIC50 (TLR7),pIC50 (TLR8)
"C[C@H]1C[C@@H](NCCCS(C)(=O)=O)CN(c2ccc(C#N)c3nccnc23)C1 [Example 21, 8-[(3R,5S)-3-[(3-methanesulfonylpropyl)amino]-5-methylpiperidin-1-yl]quinoxaline-5-carbonitrile methanesulfonamide]",> 7.12,> 7.12
"C[C@H]1C[C@@H](NS(=O)(=O)NCCC2CCN(C)CC2)CN(c2ccc(C(F)(F)F)c3ncccc23)C1 [Example 201, N-[2-(1-methylpiperidin-4-yl)ethyl]{[(3R,5S)-5-methyl-1-[8-(trifluoromethyl)quinolin-5-yl]piperidin-3-yl]amino}sulfonamide]",> 7.12,> 7.12
"N#Cc1ccc(N2C[C@@H](C(=O)NC[C@]3(F)CCNC3)O[C@@H](C(F)(F)F)C2)c2nccnc12 (single isomer, unassigned) [Example 310]",> 7.12,> 7.12
"C[C@H]1C[C@@H](NC(=O)CC2(N)CC2)CN(c2ccc(C#N)c3nccnc23)C1 [Example 120, 2-(1-aminocyclopropyl)-N-[(3R,5S)-1-(8-cyanoquinoxalin-5-yl)-5-methylpiperidin-3-yl]acetamide]",> 7.12,> 7.12
"CC[C@@H](NC(=O)[C@H]1CN(c2ccc(C#N)c3nccnc23)C[C@@H](C)O1)C(N)=O [Example 248, (2R,6R)-4-(8-Cyano-quinoxalin-5-yl)-6-methyl-morpholine-2-carboxylic acid ((R)-1-carbamoyl-propyl)-amide]",6.82 to 7.12,> 7.12
"C[C@H]1C[C@@H](NC(=O)CC2CS(=O)(=O)C2)CN(c2ccc(C#N)c3nccnc23)C1 [Example 207, N-[(3R,5S)-1-(8-cyanoquinoxalin-5-yl)-5-methylpiperidin-3-yl]-2-(1,1-dioxo-1λ^6-thietan-3-yl)acetamide]",< 6.82,6.82 to 7.12
"C[C@H]1C[C@@H](NC(=O)[C@H]2CCCN2)CN(c2ccc(C#N)c3nccnc23)C1 [Example 174, (R)-Pyrrolidine-2-carboxylic acid [(3R,5S)-1-(8-cyano-quinoxalin-5-yl)-5-methyl-piperidin-3-yl]-amide]",< 6.82,6.82 to 7.12
"C[C@@H](O)CNC(=O)[C@H]1CN(c2ccc(C#N)c3nccnc23)C[C@@H](C(F)(F)F)O1 (single isomer, unassigned) [Example 278]",< 6.82,< 6.82
"Cc1c(F)cc(N2C[C@H](NC(=O)CC3(O)CCN(C)CC3)C[C@H](C(F)(F)F)C2)c2cccnc12 [Example 68, hydrochloride]",> 7.12,> 7.12
"C[C@@H]1CN(c2ccc(C#N)c3ncncc23)C[C@H](C(=O)NC2CCNCC2(F)F)O1 (stereo partly drawn) [Example 299, (2R,6R)-4-(8-Cyano-quinazolin-5-yl)-6-methyl-morpholine-2-carboxylic acid (3,3-difluoro-piperidin-4-yl)-amide]",> 7.12,> 7.12
"C[C@@H]1CN(c2ccc(C#N)c3nccnc23)C[C@H](C(=O)N2C[C@H](N)C[C@H](C(F)(F)F)C2)O1 [Example 295, 8-[(2R,6R)-2-((3R,5S)-3-Amino-5-trifluoromethyl-piperidine-1-carbonyl)-6-methyl-morpholin-4-yl]-quinoxaline-5-carbonitrile hydrochloride (2)]",> 7.12,> 7.12
"Cc1ccc(N2C[C@@H](C)C[C@@H](NC(=O)CC3CCN(C(C)C)CC3)C2)c2cccnc12 [Example 108, 2-(1-Isopropyl-piperidin-4-yl)-N-[(3R,5S)-5-methyl-1-(8-methyl-quinolin-5-yl)-piperidin-3-yl]-acetamide]",> 7.12,> 7.12
"C[C@H]1C[C@@H](OCCN2CCN(C)CC2)CN(c2ccc(C#N)c3nccnc23)C1 (racemic) [Example 1, 8-[(3S,5R)-3-methyl-5-[2-(4-methylpiperazin-1-yl)ethoxy]piperidin-1-yl]quinoxaline-5-carbonitrile]",> 7.12,> 7.12

# Source: patent US20210300940A1 (Merck Patent GmbH, priority 2018, published 2021)
